In the Deep4Chem optical property database:
Blank lines part the entries; values can stand above or below the molecule they belong to.

Assay: solvent given as SMILES

SMILES: N#C/C=C/c1ccc2ccc3cccc4ccc1c2c34
- emission maximum (in C1CCOC1): 425 nm
- emission maximum (in C1COCCO1): 421.5 nm
- emission maximum (in C=CC#N): 439.5 nm
- emission maximum (in CC#N): 440.5 nm
- emission maximum (in CC(C)=O): 433 nm
- emission maximum (in CCCCCC): 409.5 nm
- emission maximum (in CCOC(C)=O): 423 nm
- emission maximum (in CO): 443 nm
- emission maximum (in Cc1ccccc1): 423 nm
- emission maximum (in ClCCl): 434 nm

SMILES: O=c1oc2ccc(Cl)cc2cc1-c1cc2cc(Cl)ccc2o1
- emission maximum (in CC#N): 431 nm
- emission maximum (in CCOC(C)=O): 429 nm
- emission maximum (in CS(C)=O): 488 nm
- emission maximum (in Cc1ccccc1): 433 nm
- emission maximum (in O): 473 nm

SMILES: CCCN1/C(=C\c2c(-c3ccc(N(C)C)cc3)c(=O)c2=O)C=Cc2ccccc21
- emission maximum (in C1CCCCC1): 428 nm
- emission maximum (in Cc1ccccc1): 435 nm
- emission maximum (in ClCCl): 585 nm

SMILES: CN(C)c1ccc2cc(C3=[O+][B-](F)(F)OC(c4ccccc4)=C3)ccc2c1
- emission maximum (in C1CCOC1): 643 nm
- emission maximum (in CC#N): 406 nm
- emission maximum (in CC(C)=O): 682 nm
- emission maximum (in CS(C)=O): 422 nm
- emission maximum (in Cc1ccccc1): 573 nm
- emission maximum (in ClC(Cl)Cl): 613 nm
- emission maximum (in ClCCl): 650 nm

SMILES: F[B-]1(F)OC(c2ccccc2)=CC(c2ccccc2)=[O+]1
- emission maximum (in CC#N): 398 nm
- emission maximum (in ClC(Cl)(Cl)Cl): 389 nm

SMILES: C1=Nc2cccc3cccc(c23)N1
- emission maximum (in CC#N): 476 nm
- emission maximum (in CO): 485 nm
- emission maximum (in CS(C)=O): 482 nm
- emission maximum (in Cc1ccccc1): 472 nm

SMILES: CC1(C)c2ccccc2N(c2ccc3c(c2)c(=O)c2cccc4c(=O)c5cc(N6c7ccccc7C(C)(C)c7ccccc76)ccc5n3c24)c2ccccc21
- emission maximum (in Cc1ccccc1): 549.35 nm

SMILES: CC1=CC(C)=[N+]2C1=C(c1ccccc1)c1c(C)c(-c3cccs3)c(C)n1[B-]2(F)F
- emission maximum (in CO): 600 nm
- emission maximum (in Cc1ccccc1): 591 nm
- emission maximum (in ClCCl): 594 nm

SMILES: CCCCN1C(=O)c2cccc3c(N(C)C)ccc(c23)C1=O
- emission maximum (in Cc1ccccc1): 486 nm

SMILES: c1ccc2c(c1)Oc1ccccc1B2c1ccc(N2c3ccccc3Oc3ccccc32)cc1
- emission maximum (in Cc1ccccc1): 522 nm

SMILES: COc1ccc(C2=C(Br)C(c3ccccc3)=[N+]3C2=Nc2c(-c4ccc(OC)cc4)c(Br)c(-c4ccccc4)n2[B-]3(F)F)cc1
- emission maximum (in Cc1ccccc1): 691 nm

SMILES: Cc1cc2c(cc1N1c3ccccc3C(C)(C)c3ccccc31)C(C)(C)c1cc(N3c4ccccc4C(C)(C)c4ccccc43)c(C)cc1S2(=O)=O
- emission maximum (in Cc1ccccc1): 442.11 nm
- emission maximum (in ClCCl): 495 nm

SMILES: Cc1ccc(/C(C#N)=C/c2cc(/C=C(\C#N)c3ccc(C)cc3)c(-c3ccc(N(c4ccccc4)c4ccccc4)cc3)cc2-c2ccc(N(c3ccccc3)c3ccccc3)cc2)cc1
- emission maximum (in C1CCCCC1): 453 nm
- emission maximum (in C1CCOC1): 538 nm
- emission maximum (in CCCCCC): 453 nm
- emission maximum (in CCOC(C)=O): 533 nm
- emission maximum (in Cc1ccccc1): 480 nm
- emission maximum (in ClC(Cl)Cl): 517 nm
- emission maximum (in ClCCl): 552 nm

SMILES: COc1ccc2c3ccc(OC)cc3n(-c3ccc(-c4nnc(-c5c(C(C)C)cc(C(C)C)cc5C(C)C)o4)cc3)c2c1
- emission maximum (in Cc1ccccc1): 437 nm

SMILES: CN(C)c1ccccc1
- emission maximum (in C1CCCCC1): 339.9 nm

SMILES: CCn1c2ccccc2c2cc(-c3cc(-c4ccc5c(c4)c4ccccc4n5CC)nc(N4CCCCC4)n3)ccc21
- emission maximum (in C1CCOC1): 408 nm
- emission maximum (in CCOC(C)=O): 409 nm
- emission maximum (in CN(C)C=O): 417 nm
- emission maximum (in Cc1ccccc1): 406 nm
- emission maximum (in ClCCl): 414 nm

SMILES: CCn1c2ccccc2c2cc(/C=C/C(=O)c3ccc4c(c3)c3cc(C(=O)/C=C/c5ccc6c(c5)c5ccccc5n6CC)ccc3n4CC)ccc21
- emission maximum (in C1CCCCC1): 430 nm
- emission maximum (in C1CCOC1): 474 nm
- emission maximum (in CC#N): 491 nm
- emission maximum (in CC(C)=O): 476 nm
- emission maximum (in CCO): 521 nm
- emission maximum (in CCOCC): 475 nm
- emission maximum (in CN(C)C=O): 487 nm
- emission maximum (in CO): 542 nm
- emission maximum (in CS(C)=O): 493 nm
- emission maximum (in ClC(Cl)(Cl)Cl): 454 nm
- emission maximum (in ClC(Cl)Cl): 475 nm

Further lines, results first:

- emission maximum (in C1CCOC1): 616 nm
SMILES: CN(C)c1ccc(C(=Cc2ccc(/C=C(\C#N)c3ccccc3)cc2)c2ccc(N(C)C)cc2)cc1

- emission maximum (in ClCCl): 382 nm
SMILES: CCCCCCn1c2c(c3cc(-c4ccc5ccc6cccc7ccc4c5c67)ccc31)-c1c(c3cc(-c4ccc5ccc6cccc7ccc4c5c67)ccc3n1CCCCCC)-c1c(c3cc(-c4ccc5ccc6cccc7ccc4c5c67)ccc3n1CCCCCC)-c1c-2c2cc(-c3ccc4ccc5cccc6ccc3c4c56)ccc2n1CCCCCC

- emission maximum (in CO): 384 nm
SMILES: N[C@@H](Cn1nnc2cc(-c3ccc(N4CCOCC4)cc3)ccc21)C(=O)O

- emission maximum (in CC#N): 553 nm
SMILES: N#CC(/N=C/c1ccccc1O)=C(C#N)/N=C/c1ccccc1O

- emission maximum (in C1CCCCC1): 568 nm
SMILES: c1ccc(-c2cc3cccc[n+]3[b-]3ccc(-c4cc[b-]5c(c4)c(-c4ccccc4)cc4cccc[n+]54)cc32)cc1

- emission maximum (in ClCCl): 626 nm
SMILES: CC(C)c1cccc(C(C)C)c1N1C(=O)c2ccc3c4c(-c5ccc(C(=O)O)cc5)c5ccc6c7c(cc8c9cc(C(=O)O)ccc9c(c9ccc(c2c39)C1=O)c4c8c57)C(=O)N(c1c(C(C)C)cccc1C(C)C)C6=O

- emission maximum (in CN(C)C=O): 536 nm
SMILES: O=C1NC(=O)c2ccc3c4ccc5c6c(ccc(c7ccc1c2c73)c64)C(=O)N(c1ccc(Cl)cc1)C5=O

- emission maximum (in ClCCl): 563 nm
SMILES: CCCC1=C(CCC)c2cccc3c2c(cc2nc4ccccc4nc23)O1

- emission maximum (in C1CCOC1): 524 nm
- emission maximum (in CC#N): 526 nm
- emission maximum (in CCO): 520 nm
- emission maximum (in CCOC(C)=O): 518 nm
- emission maximum (in ClCCl): 504 nm
- emission maximum (in c1ccccc1): 511 nm
SMILES: CC1(C)CC(/C=C/c2ccc(-n3ccnc3)cc2)=CC(=C(C#N)C#N)C1

- emission maximum (in ClCCl): 443 nm
SMILES: CC(C)(C)c1ccc(-c2cc(-c3ccc(-c4cc(-c5ccc(C(C)(C)C)cc5)c(C#N)s4)s3)sc2C#N)cc1

- emission maximum (in ClC(Cl)Cl): 434 nm
SMILES: O[Si](c1c2ccccc2cc2ccccc12)(c1c2ccccc2cc2ccccc12)c1c2ccccc2cc2ccccc12

- emission maximum (in CO): 513 nm
SMILES: CCN(C)c1ccc(C2=C3C(C)=CC(C)=[N+]3[B-](F)(F)n3c(C)cc(C)c32)cc1

- emission maximum (in ClC(Cl)Cl): 835 nm
SMILES: CCCCCCCCCCOc1cc(OCCCCCCCCCC)cc(C2=C3C(/C=C/c4ccc(N(C)C)cc4)=C(C#Cc4ccc(C(C)(C)C)cc4)C(/C=C/c4ccc(N(C)C)cc4)=[N+]3[B-](F)(F)n3c(/C=C/c4ccc(N(C)C)cc4)c(C#Cc4ccc(C(C)(C)C)cc4)c(/C=C/c4ccc(N(C)C)cc4)c32)c1

- emission maximum (in ClCCl): 520 nm
SMILES: C[Si]1(C)O[Si](C)(C)c2cc3nc4ccc([N+](=O)[O-])cc4c(-c4ccccc4)c3cc2[Si](C)(C)O1

- emission maximum (in CO): 502 nm
SMILES: CC1=CC(Br)=CN2C[n+]3cc(Br)cc(C)c3N=C12

- emission maximum (in CC#N): 603 nm
- emission maximum (in CCO): 593 nm
- emission maximum (in CN(C)C=O): 608 nm
- emission maximum (in O): 604 nm
SMILES: O=C([O-])c1ccccc1C1=c2cc3c4c(c2Oc2c1cc1c5c2CCCN5CCC1)CCC[N+]=4CCC3

- emission maximum (in CS(C)=O): 583 nm
- emission maximum (in ClC(Cl)Cl): 544 nm
SMILES: CCCCCCN(c1ccccc1)c1ccc(/C=C/c2cc(=O)oc3cc(C)ccc23)cc1

- emission maximum (in O): 663 nm
SMILES: COc1ccc(C2=C3C=CC(=[N+](C)C)C=C3[Si](C)(C)c3cc(N(C)C)ccc32)c(OC)c1

- emission maximum (in ClC(Cl)Cl): 447 nm
SMILES: F[B-]1(F)OC(c2ccccc2)=Cc2c3ccccc3c3ccccc3[n+]21

- emission maximum (in ClCCl): 460 nm
- emission maximum (in c1cc(-n2c3ccccc3c3ccccc32)cc(-n2c3ccccc3c3ccccc32)c1): 448 nm
SMILES: O=S1(=O)c2ccccc2C2(c3cc(-c4ccc(N(c5ccccc5)c5ccccc5)cc4)ccc3-c3ccc(-c4ccc(N(c5ccccc5)c5ccccc5)cc4)cc32)c2ccccc21

- emission maximum (in C1COCCO1): 464 nm
SMILES: N#Cc1ccc(/C=C2\N=C(c3ccccc3)NC2=O)cc1
